{"source": "patent US20090264371A1", "about": "“ANTIPROLIFERATIVE PEPTIDES AND ANTIBODIES FOR THEIR DETECTION” (BIOINCEPT LLC, priority 2004, published 2009)", "key": {"[1]": {"system": "renal cancer cells (surgical specimen)", "experiment": "Proliferation of cells from a surgical renal cancer specimen", "assay_type": "cell-based", "details": "about 24-30 hrs; chemotherapies at high concentrations of approximately 10-100 fold", "experimental": "Cells were incubated with purified developmental peptides for approximately 24-30 hrs. While developmental peptides were effective in inhibiting proliferation of the renal cancer cells, two standardly used chemotherapies (a 5-FU regimen and a vinblastine regimen) remained ineffective, even at a high concentrations of approximately 10-100 fold."}, "[2]": {"system": "renal carcinoma cells (RCC)", "experiment": "Viability of short-term cultured renal carcinoma cells (P1 and JC-1 staining)", "assay_type": "cell-based", "experimental": "Mitochondrial membrane potential. A stock solution of JC-1 dye (100 μg/ml in DMSO) is prepared. Cells are preincubated with the peptide of SEQ ID NO: 2 for up to 24 hours. JC-1 reagent is diluted just prior to use. For each assay, 100 μl of stock solution is diluted to 1 ml using pre-warmed cell culture medium and the solution is vortexed. 40 μl of diluted JC-1 is added to each well and incubated at 37° C. in 5% CO2 incubator for 25-30 min. Medium is replaced with pre-warmed PBS. Samples are detected by fluorescent signals by using flow cytometry results compared to buffer only treated controls. JC-1 reagent accumulates in the intact mitochondria, giving off a bright red fluorescence. In apoptotic cells, JC-1 reagent cannot accumulate in the mitochondria due to the altered mitochondrial membrane potential.\nFIG. 2 further confirms developmental peptides effectiveness as compared to chemotherapy. Short-term cultured renal carcinoma cells (RCC) were incubated with developmental peptides. […] While not wishing to be bound to theory, the anti-proliferative effect of developmental peptides is thought to be due to the developmental peptides induction of mitochondrial alterations in the malignant cells, as analyzed using JC-1 staining, a process which invariably leads to cell death. […] Thus, low concentrations of developmental peptides may enhance the efficacy of a chemotherapy regimen."}, "[3]": {"system": "MCF-7 breast cancer cells", "experiment": "3H thymidine incorporation assay on MCF-7 cells", "assay_type": "cell-based", "details": "about 1.5-12 mg/ml, low concentrations", "experimental": "Isolation of the 9AA peptide from the adult mammalian liver. Fresh adult rabbit liver tissues were collected and homogenized on ice with H20. The samples were centrifuged at 15,000 g and the sample was filtered using Amicon filters 3000-10000 Da, <3000-500, and <500. Fractions collected were tested for activity using the MCF-7 cells. […] Separation by reverse phase HPLC yielded a 90% inhibition of cancer cells.\nIn a similar manner adult frozen porcine liver was collected and homogenized with H2O at 4° C. The suspension was centrifuged at 15,000 g and the pellet discarded. The suspension was filtered and the fraction <3000 Da was collected and run using reversed phase HPLC C18 column with a 0-95% acetonitrile gradient. […] Antiproliferative activity was tested by collecting the fractions, drying and suspending the sample in media and adding to MCF7 cells for 48 hours. Incorporation of 3H thymidine into cellular DNA of MCF-7 breast cancer cells was used to determine the anti-proliferative activity.\n3H Thymidine assay. […] Cell from each well were transferred to a scintillation vial and counted in a Beckman Counter Model LS-133 scintillation counter.\n(§1) A breast cancer cell line (MCF-7) and human mammary epithelial cells (HMEC) were incubated with the 9 AA developmental peptides of SEQ ID NO: 2. […] The antiproliferative response was repeated and analyzed using the XTT method. […]"}, "[4]": {"system": "human mammary epithelial cells (HMEC)", "experiment": "3H thymidine labeling of DNA in normal HMEC cells", "assay_type": "cell-based", "details": "about 1.5-12 mg/ml, low concentrations", "experimental": "3H Thymidine assay. In particular the tritiated thymidine assays were performed as follows. 10,000 cells were plated in 1 ml of RPMI 1640 medium containing 10% fetal bovine serum in 24-well plates. The cultures were incubated for 24 hours at 37 C, 5% carbon dioxide. The peptide was added to each corresponding well at different doses and allowed to incubate for 72 hours. The cells were then exposed to tritiated thymidine at a concentration of 1 uCi/ml (ICN, cat #2403905) and incubated at 37 C for 4 hours. The cells were washed twice with cold PBS to remove non-incorporated thymidine. The cells were treated twice with 10% trichloracetic acid (Fisher, lot #94276913), 1 ml per well. The cells were then disrupted by treatment with 10% sodium lauryl sulfate (Sigma, Cat#L-3771) at 500 ul/well. Cell from each well were transferred to a scintillation vial and counted in a Beckman Counter Model LS-133 scintillation counter.\nas §1, with “2. 3H thymidine labeling of DNA was used to analyze the anti-proliferative effect of developmental peptides using concentrations in the range of about 1.5-12 mg/ml developmental peptides.” for “2.”"}, "MCF-7 cells": {"system": "MCF-7 cells", "experiment": "XTT method on MCF-7 cells", "assay_type": "cell-based", "details": "about 1.5 mg/ml", "experimental": "(§2) XTT method. A commercial (Roche, N.J.) kit was used. At the end of the experiment the XTT labeling mixture was coupled to the electron reagent coupling and was added to the cultured cells in microplate for 4 hours. The microplate was placed in an ELISA microplate reader (Molecular devices, Menlo Park, Calif.).\n(§3) A breast cancer cell line (MCF-7) and human mammary epithelial cells (HMEC) were incubated with the 9 AA developmental peptides of SEQ ID NO: 2. 3H thymidine labeling of DNA was used to analyze the anti-proliferative effect of developmental peptides using concentrations in the range of about 1.5-12 mg/ml developmental peptides. […] The antiproliferative response was repeated and analyzed using the XTT method. […] Finally, this same analysis was repeated using resistant prostate cancer cells, the PC3 cell line, which are androgen receptor negative cells. Developmental peptides was added to the cells using concentrations of about 6-25 mg/ml for 24 hours in the presence of 3H thymidine to measure the effect of developmental peptides on cell proliferation."}, "HMEC cells": {"system": "HMEC cells", "experiment": "XTT method on HMEC cells", "assay_type": "cell-based, human", "details": "about 1.5 mg/ml", "experimental": "as §2, §3"}, "[5]": {"system": "PC3 cell line (androgen receptor negative prostate cancer cells)", "assay_type": "cell-based", "details": "about 12-25 mg/ml, 24 hours"}, "rat embryo cultures": {"system": "rat embryo cultures", "experiment": "Rat embryo culture teratogenicity (roller bottle system)", "details": "48 hours, about 500 μg/ml", "experimental": "Rat embryo cultures were exposed to synthetic developmental peptides of about 9 AA (about 500 μg/ml) for 48 hours (FIG. 6)."}}, "data": [{"molecule": "O=c1[nH]cc(F)c(=O)[nH]1", "note": "[5-FU]", "values": [{"measurement": "inhibition of renal cancer cell proliferation", "setting": "[1]", "result": "ineffective"}]}, {"molecule": "COc1cc([C@@H]2c3cc4c(cc3[C@@H](O[C@@H]3O[C@@H]5CO[C@@H](C)O[C@H]5[C@H](O)[C@H]3O)[C@H]3COC(=O)[C@H]23)OCO4)cc(OC)c1O", "note": "[etoposide]", "values": [{"measurement": "cell viability / cell death in RCC, P1 staining", "setting": "[2]", "result": "failed to induce cell death"}]}, {"molecule": "CN(Cc1cnc2nc(N)nc(N)c2n1)c1ccc(C(=O)N[C@@H](CCC(=O)O)C(=O)O)cc1", "note": "[methotrexate]", "values": [{"measurement": "cell viability / cell death in RCC, P1 staining", "setting": "[2]", "result": "failed to induce cell death"}]}, {"molecule": "CC(=O)O[C@H]1C(=O)[C@@]2(C)[C@H]([C@H](OC(=O)c3ccccc3)[C@]3(O)C[C@H](OC(=O)[C@H](O)[C@@H](NC(=O)c4ccccc4)c4ccccc4)C(C)=C1C3(C)C)[C@]1(OC(C)=O)CO[C@@H]1C[C@@H]2O", "note": "[paclitaxel]", "values": [{"measurement": "cell viability / cell death in RCC, P1 staining", "setting": "[2]", "result": "failed to induce cell death"}]}, {"molecule": "CC[C@]1(O)C[C@@H]2CN(CCc3c([nH]c4ccccc34)[C@@](C(=O)OC)(c3cc4c(cc3OC)N(C)[C@H]3[C@@](O)(C(=O)OC)[C@H](OC(C)=O)[C@]5(CC)C=CCN6CC[C@]43[C@@H]65)C2)C1", "note": "[vinblastine]", "values": [{"measurement": "inhibition of renal cancer cell proliferation", "setting": "[1]", "result": "ineffective"}]}, {"molecule": "H-VLGKRIKGT-OH [9 AA developmental peptides, N-Val-Leu-Gly-Lys-Arg-Ile-Lys-Gly-Thr-OH]", "values": [{"measurement": "antiproliferative response, 3H thymidine", "setting": "[3]", "result": "antiproliferative response was maintained"}, {"measurement": "effect on normal HMEC cells, 3H thymidine", "setting": "[4]", "result": "absence of any harmful or negative effect"}, {"measurement": "antiproliferative effect, XTT", "setting": "MCF-7 cells", "result": "maintained the antiproliferative effect"}, {"measurement": "effect on HMEC cells, XTT", "setting": "HMEC cells", "result": "minimal effect"}, {"measurement": "inhibition of PC3 proliferation, 3H thymidine", "setting": "[5]", "result": "approximately 98%"}, {"measurement": "development of viscera yolk sac and embryo", "setting": "rat embryo cultures", "result": "developed normally"}, {"measurement": "teratogenicity", "setting": "rat embryo cultures", "result": "not teratogenic"}]}]}
